This is an account of results in ChEMBL document CHEMBL1140320, “Second generation transition state analogue inhibitors of human 5'-methylthioadenosine phosphorylase” (J Med Chem, 2005).

For orientation: Ki means a measure of affinity in units of concentration, obtained from inhibition or displacement. The low end stands for tighter binding, the high end for weaker binding. The term Km denotes the substrate concentration at which the rate is half of its maximum.

The target of data set [1] is T1, S-methyl-5'-thioadenosine phosphorylase (Homo sapiens, UniProt Q13126).
T1 sequence (Q13126 whole entry): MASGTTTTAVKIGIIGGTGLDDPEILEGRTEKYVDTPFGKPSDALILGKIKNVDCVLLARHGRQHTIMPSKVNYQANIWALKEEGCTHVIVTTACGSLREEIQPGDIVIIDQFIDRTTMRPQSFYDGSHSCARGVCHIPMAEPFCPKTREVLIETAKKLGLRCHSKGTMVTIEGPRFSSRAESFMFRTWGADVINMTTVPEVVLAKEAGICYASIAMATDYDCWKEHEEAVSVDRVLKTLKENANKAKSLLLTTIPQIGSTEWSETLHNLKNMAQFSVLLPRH
Nature of the data set: Inhibition of human MTAP as equilibrium dissociation constant.

For data set [2], the target named is T1, S-methyl-5'-thioadenosine phosphorylase. Nature of the data set: Inhibition of human MTAP as initial dissociation constant.
The target is the same in data set [3]. Nature of the data set: Inhibition of human MTAP as equilibrium dissociation constant; ND=no slow-onset phase.
Substrate in data set [4]: CSC[C@H]1O[C@@H](n2cnc3c(N)ncnc32)[C@H](O)[C@@H]1O
Nature of the data set: Km for human MTAP.

Take `NC1NC=Nc2c(CN3CC(O)C(CSc4ccc(F)cc4)C3)c[nH]c21` (stereo not drawn): the figures for the Ki in data set [1] and in data set [2] were 0.16 nM and 0.81 nM, respectively.

With `NC1NC=Nc2c(CN3CC(O)C(CSc4ccccc4)C3)c[nH]c21` (stereo not drawn), the Ki in data set [1] came to 0.17 nM; in data set [2], 1.5 nM. The like results for `CSCC1CN(Cc2c[nH]c3c(N)ncnc23)CC1O` (stereo not drawn) were, in that order, 0.09 nM and 1.7 nM. For `Nc1ncnc2c(CN3CC(O)C(CSCc4ccccc4)C3)n[nH]c12` (stereo not drawn), the Ki entry is “No slow-onset phase observed” in data set [3] and 55 nM in data set [2].

For the molecule `NC1NC=Nc2c(CN3CC(O)C(CSc4cccc(Cl)c4)C3)c[nH]c21` (stereo not drawn), the Ki came to 0.27 nM in data set [1] and 2 nM in data set [2]. For the molecule `CCCSCC1CN(Cc2c[nH]c3c2NC=NC3N)CC1O` (stereo not drawn), the Ki in data set [1] was 0.12 nM; in data set [2], 1.3 nM. With `COCC1CN(Cc2c[nH]c3c2N=CNC3N)CC1O` (stereo not drawn), the Ki in data set [1] came to 8 nM; in data set [2] it was 14 nM. Take `NC1N=CNc2c(CN3CC(O)C(CSc4ccc(Cl)cc4)C3)c[nH]c21` (stereo not drawn): the Ki in data set [1] was 0.01 nM; in data set [2], 0.36 nM.

Take `CC(C)SCC1CN(Cc2c[nH]c3c2NC=NC3N)CC1O` (stereo not drawn): the Ki was found to be 0.26 nM in data set [1] and 0.9 nM in data set [2]. For the molecule `NC1N=CNc2c(CN3CC(O)C(CSc4ccncc4)C3)c[nH]c21` (stereo not drawn), the Ki in data set [1] is 0.16 nM; in data set [2], 2 nM. In the case of `CCSCC1CN(Cc2c[nH]c3c2N=CNC3N)CC1O` (stereo not drawn), the Ki in data set [1] was determined as 0.034 nM; in data set [2], 0.65 nM. `CCCCSCC1CN(Cc2c[nH]c3c2N=CNC3N)CC1O` (stereo not drawn): the results for the Ki in data set [1] and in data set [2] were 0.11 nM and 0.28 nM, respectively. Turning to `CCCC1CN(Cc2c[nH]c3c2N=CNC3N)CC1O` (stereo not drawn), the Ki in data set [1] was determined as 3 nM; in data set [2], 22 nM. `Nc1[nH]cnc2c(CN3CC(O)C(CSCc4ccccc4)C3)cnc1-2` (stereo not drawn): the Ki in data set [1] was found to be 0.7 nM; in data set [2], 1.4 nM.

Turning to `NC1NC=Nc2c(CN3CC(O)C(CSC4CCCCC4)C3)c[nH]c21` (stereo not drawn), the Ki came out at 0.37 nM in data set [1] and 0.76 nM in data set [2].

For `NC1N=CNc2c(CN3CC(O)C(COCc4ccccc4)C3)c[nH]c21` (stereo not drawn), the results for the Ki in data set [1] and in data set [2] were 42 nM and 85 nM, respectively.

B1: S-methyl-5'-thioadenosine phosphorylase (Homo sapiens), Q13126 (protein)
chain: T1 sequence (Q13126 whole entry)
B1: the Km in data set [4] stood at 5 µM.
